PubChem BioAssay (NCI)
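Compound exposure: 48 hours, 5 concentrations, 96-well plates. At the TGI there is no net growth.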

Legend:
Assay in all cases: inhibition of tumour cell growth, NCI panel, 48 h
786-0 renal = test system: 786-0 renal
CCRF-CEM leukemia = test system: CCRF-CEM leukemia
HT29 colon = test system: HT29 colon
MCF7 breast = test system: MCF7 breast
NCI/ADR-RES ovarian = test system: NCI/ADR-RES ovarian
OVCAR-3 ovarian = test system: OVCAR-3 ovarian
SF-295 CNS = test system: SF-295 CNS
SK-MEL-5 melanoma = test system: SK-MEL-5 melanoma
T-47D breast = test system: T-47D breast
UACC-257 melanoma = test system: UACC-257 melanoma

Compound | TGI (786-0 renal) | TGI (CCRF-CEM leukemia) | TGI (HT29 colon) | TGI (MCF7 breast) | TGI (NCI/ADR-RES ovarian) | TGI (OVCAR-3 ovarian) | TGI (SF-295 CNS) | TGI (SK-MEL-5 melanoma) | TGI (T-47D breast) | TGI (UACC-257 melanoma)
CC(C)=CCC[C@@H](C)C1=C(O)C(Nc2ccccc2I)=C(C)C(=O)C1=O | > 58.7 µM | > 20.9 µM | 28 µM | > 75 µM | > 17.6 µM | > 47.5 µM | > 38.9 µM | 23 µM | 47.5 µM | 74.3 µM
COc1cc(Oc2nc3cc(F)c(F)cc3nc2-c2ccccc2)cc(OC)c1OC | > 100 µM | > 100 µM | > 100 µM | > 100 µM | > 100 µM | > 100 µM | > 100 µM | 75.3 µM | > 100 µM | > 100 µM
N#Cc1c(N)nc2c3c1NC(=O)C(C(N)=O)C3c1ccccc1O2 (stereo not given) | > 100 µM | > 100 µM | > 100 µM | > 100 µM | > 100 µM | > 100 µM | > 100 µM | > 100 µM | > 100 µM | > 100 µM
CC1CCC2(OC1)OC1C(O)C3C4CCC5CC(OC6OC(CO)C(OC7OC(CO)C(O)C(OC8OCC(O)C(O)C8O)C7OC7OC(CO)C(O)C(OC8OC(CO)C(O)C(O)C8O)C7O)C(O)C6O)C(O)CC5(C)C4CCC3(C)C1C2C (stereo not given) | 2.96 µM | 10.5 µM | 11.8 µM | 4.78 µM | 13.6 µM | 3.32 µM | 3.66 µM | 15.9 µM | 10.4 µM | 22.9 µM
CC1=CCC[C@H]2[C@](C)(CC3=CC(=O)C(SCC(C)C)=CC3=O)[C@@H](C)CC[C@]12C | 27.2 µM | 3.72 µM | 29.9 µM | 37.7 µM | 38.8 µM | 42.1 µM | 34.6 µM | 31.5 µM | 12.9 µM | 37.8 µM
CC(=O)OCC1OC(n2c(C)c(C)c(C)c(C#N)c2=S)C(OC(C)=O)C(OC(C)=O)C1OC(C)=O (stereo not given) | 93.1 µM | > 100 µM | > 100 µM | > 100 µM | > 100 µM | > 100 µM | 61.4 µM | > 100 µM | > 100 µM | > 100 µM
CC(C)Oc1cccc(N2C(Nc3ccccc3)=Nc3ccncc3S2(=O)=O)c1 | 52.5 µM | 62.4 µM | > 100 µM | > 100 µM | 53.3 µM | 52.4 µM | 95.1 µM | 26.6 µM | 90.1 µM | 50.4 µM
Cc1c([C@H](C)[C@@H]2NC[C@@H](C)C[C@H]2O)ccc2c1C[C@H]1[C@H]2CC=C2C[C@@H](O)CC[C@@]21C | 37.9 µM | 38.4 µM | 42 µM | 31.5 µM | > 100 µM | 41.5 µM | 40.8 µM | 22.9 µM | 53.2 µM | 27.8 µM
Cc1cc(-c2nc3cccc(O)c3s2)ccc1N | > 100 µM | 65.2 µM | > 100 µM | 34.1 µM | 55.9 µM | > 100 µM | > 100 µM | 48.8 µM | > 100 µM | > 100 µM
CCCCCCCCOc1ccc(/C=C/C2=[N+](CCO)CCO2)cc1 | 13.7 µM | 6.43 µM | 8.26 µM | > 100 µM | 29.4 µM | 28 µM | 16.9 µM | 7.04 µM | 13.2 µM | 12.4 µM
O=C(c1ccc(Cl)cc1)N1CCN=C1c1cc2ccccc2c2ccccc12 | 30.4 µM | 81.1 µM | 30 µM | 34.2 µM | 33.3 µM | 35.3 µM | 30.5 µM | 27.9 µM | 54.4 µM | 31.8 µM
